The test relates to Escherichia coli (ATCC 11229)/Staphylococcus aureus (ATCC 6538)/Pseudomonas aeruginosa (ATCC 27853). Kind of test: Zone of Inhibition Test, control line (organism not stated). It counts as cell-based. The conditions noted are these: 5 μg disk, n = 1; one value only, organism not assigned; 48 hours at ambient temperature. Here is the method: Zone of inhibition testing with a variety of gram negative and gram positive bacteria was performed. The test material was brought into contact with a known amount of test microorganisms on an agar plate for 48 hours at ambient temperature. At the end of the contact time the diameter of inhibited colony formation (zone of inhibition) surrounding the test material was measured.
Referenced method AATCC 147-1998 “Antibacterial Activity Assessment of Textile Materials: Parallel Streak Method” with changes for following Zone of Inhibition procedure (AATCC is “American Association of Textile Chemists and Colorists” located in Research Triangle Park, N.C.):
Organisms used in this study were Escherichia coli (ATCC 11229)/Staphylococcus aureus (ATCC 6538)/Pseudomonas aeruginosa (ATCC 27853) (ATCC is “American Type Culture Collection” an organization in Manassas, Va.). Washed cells were diluted in Butterfield's Phosphate buffer to a target titer of approximately 10^8 colony forming units (CFU)/mL. Agar plates for testing were brought to room temperature prior to inoculation. A sterile applicator swab was placed in cell suspension and excess fluid was expressed using the side of the centrifuge tube. […] At the end of the contact time, the diameter of inhibited colony formation (zone of inhibition) surrounding the test material was measured.

Here are results for one compound from patent publication US20150181863A1, “FLEXIBLE SUPERABSORBENT BINDER POLYMER AND ANTIMICROBIAL AGENT COMPOSITION” (EVONIK INDUSTRIES AG, priority 2013, published 2015).

For `CN[C@H](CC(C)C)C(=O)N[C@H]1C(=O)N[C@@H](CC(N)=O)C(=O)N[C@H]2C(=O)N[C@H]3C(=O)N[C@H](C(=O)N[C@H](C(=O)O)c4cc(O)cc(O)c4-c4cc3ccc4O)[C@H](O)c3ccc(c(Cl)c3)Oc3cc2cc(c3O[C@@H]2O[C@H](CO)[C@@H](O)[C@H](O)[C@H]2O[C@H]2C[C@](C)(N)[C@H](O)[C@H](C)O2)Oc2ccc(cc2Cl)[C@H]1O` [Positive Control, vancomycin], the “ZOI* (cm), single value for control” value was found to be 1.9 cm.
